The source of these data is patent US10435396B2, “2-substituted indazoles, methods for producing same, pharmaceutical preparations that contain same, and use of same to produce drugs” (Bayer Pharma Aktiengesellschaft, priority 2016, dated 2019).

The target in one test is human IRAK4 (Homo sapiens (Human), UniProt Q9NWZ3). Kind of test: IRAK4 kinase assay (IRAK4 TR-FRET assay). The class given is biochemical. Particulars: 1 mM ATP. As to the method:
The IRAK4-inhibitory activity of the substances according to the invention was measured in the IRAK4 TR-FRET assay (TR-FRET=Time Resolved Fluorescence Resonance Energy Transfer) described hereinafter.
Recombinant fusion protein from N-terminal GST (glutathione S-transferase) and human IRAK4, expressed in baculovirus-infected insect cells (Hi5, BTI-TN-5B1-4, cell line purchased from Invitrogen, catalogue No. B855-02) and purified via affinity chromatography, was used as enzyme. The substrate used for the kinase reaction was the biotinylated peptide biotin-Ahx-[…] (C-terminus in amide form) which can be purchased, for example, from Biosyntan GmbH (Berlin-Buch).
For the assay, 11 different concentrations in the range from 20 μM to 0.073 nM were prepared from a 2 mM solution of the test substance in DMSO. 50 nl of the respective solution were pipetted into a black low-volume 384-well microtitre plate (Greiner Bio-One, Frickenhausen, Germany), 2 μl of a solution of IRAK4 in assay buffer [50 mM HEPES pH 7.5, 5 mM MgCl2, 1.0 mM dithiothreitol, 30 μM activated sodium orthovanadate, 0.1% (w/v) of bovine gamma-globulin (BGG) 0.04% (v/v) nonidet-P40 (Sigma)] were added and the mixture was incubated for 15 min to allow prebinding of the substances to the enzyme prior to the kinase reaction. The kinase reaction was then started by addition of 3 μl of a solution of adenosine triphosphate (ATP, 1.67 mM=final concentration in 5 μl of assay volume: 1 mM) and peptide substrate (0.83 μM=final concentration in 5 μl assay volume: 0.5 μM) in assay buffer, and the resulting mixture was incubated at 22° C. for the reaction time of 45 min. The concentration of the IRAK4 was adjusted to the respective activity of the enzyme and set such that the assay was carried out in the linear range. Typical concentrations were in the order of about 0.2 nM. The reaction was stopped by addition of 5 μl of a solution of TR-FRET detection reagents [0.1 μM streptavidin-XL665 (Cisbio Bioassays; France, catalogue No. 610SAXLG)] and 1.5 nM anti-phosphoserine antibody [Merck Millipore, “STK Antibody”, catalogue No. 35-002] and 0.6 nM LANCE EU-W1024-labelled anti-mouse-IgG antibody (Perkin-Elmer, product No. AD0077; alternatively, it is possible to use a terbium cryptate-labelled anti-mouse-IgG antibody from Cisbio Bioassays) in aqueous EDTA solution (100 mM EDTA, 0.4% [w/v] bovine serum albumin [BSA] in 25 mM HEPES pH 7.5).
The resulting mixture was incubated at 22° C. for 1 h to allow formation of a complex of the biotinylated phosphorylated substrate and the detection reagents. The amount of the phosphorylated substrate was then evaluated by measuring the resonance energy transfer from europium chelate-labelled anti-mouse-IgG antibody to streptavidin-XL665. To this end, the fluorescence emissions at 620 nm and 665 nm were measured after excitation at 350 nm in a TR-FRET measuring instrument, for example a Rubystar (BMG Labtechnologies, Offenburg, Germany) or a Viewlux (Perkin-Elmer). The ratio of the emissions at 665 nm and 622 nm was taken as a measure of the amount of phosphorylated substrate. The data were normalized (enzyme reaction without test substance=0% inhibition; all other assay components but no enzyme=100% inhibition). Typically, the test substances were tested on the same microtitre plates at 11 different concentrations in the range from 20 μM to 0.073 nM (20 μM, 5.7 μM, 1.6 μM, 0.47 μM, 0.13 μM, 38 nM, 11 nM, 3.1 nM, 0.89 nM, 0.25 nM and 0.073 nM). The dilution series were prepared prior to the assay (2 mM to 7.3 nM in 100% DMSO) by serial dilutions. The IC50 values were calculated using a 4-parameter fit.
On the technique in general: In TR-FRET formats the signal depends on donor and acceptor labels being close together.

The test system of another test is human PBMCs. Briefly: In vitro LPS-induced cytokine production in human PBMCs. Particulars: 0.1 μg/ml LPS, 24 hours. The format is cell-based. How it is done:
In Vitro LPS (Lipopolysaccharide)-Induced Cytokine Production in Human PBMCs (Peripheral Blood Mononuclear Cells)
The effect of the inventive compounds of the general formula (I) on induced cytokine production in human PBMCs was examined. Cytokine production was induced here by LPS, a TLR4 ligand, which leads to activation of the IRAK4-mediated signal path.
The human PBMCs were obtained from anti-coagulated human whole blood. To this end, 15 ml of Ficoll-Paque (Biochrom, Cat. No. L6115) were initially charged in Leucosep tubes and 20 ml of human blood were added. After centrifugation of the blood at 800 g for 15 min at room temperature, the plasma including the platelets was removed and discarded. The PBMCs were transferred into centrifugation tubes and made up with PBS (phosphate-buffered saline) (Gibco, Cat. No. 14190). The cell suspension was centrifuged at room temperature at 250 g for 10 min and the supernatant was discarded. The PBMCs were resuspended in complete medium (RPMI 1640, without L-glutamine (PAA, Cat. No. E15-039), 10% FCS; 50 U/ml penicillin, 50 μg/ml streptomycin (PAA, Cat. No. P11-010) and 1% L-glutamine (Sigma, Cat. No. G7513)).
The assay was also carried out in complete medium. The PBMCs were sown in 96-well plates at a cell density of 2.5×10^5 cells/well. The compounds according to the invention were subjected to serial dilution in a constant volume of 100% DMSO and used in the assay at 8 different concentrations in the range from 10 μM to 3 nM such that the final DMSO concentration was 0.4% DMSO. Prior to the actual stimulation, the cells were then pre-incubated therewith for 30 min. […] Cell viability was determined using the CellTiter-Glo luminescent assay (Promega, Cat. No. G7571 (G755/G756A)) in accordance with the manufacturer's instructions. The amount of secreted TNF-α in the cell culture supernatant was determined using the Human ProInflammatory 9-Plex Tissue Culture Kit (MSD, Cat. No. K15007B) in accordance with the instructions of the manufacturer. […]

Where only a bound is given, the exact number is not on record here.

Sequence of human IRAK4 (Q9NWZ3 whole entry): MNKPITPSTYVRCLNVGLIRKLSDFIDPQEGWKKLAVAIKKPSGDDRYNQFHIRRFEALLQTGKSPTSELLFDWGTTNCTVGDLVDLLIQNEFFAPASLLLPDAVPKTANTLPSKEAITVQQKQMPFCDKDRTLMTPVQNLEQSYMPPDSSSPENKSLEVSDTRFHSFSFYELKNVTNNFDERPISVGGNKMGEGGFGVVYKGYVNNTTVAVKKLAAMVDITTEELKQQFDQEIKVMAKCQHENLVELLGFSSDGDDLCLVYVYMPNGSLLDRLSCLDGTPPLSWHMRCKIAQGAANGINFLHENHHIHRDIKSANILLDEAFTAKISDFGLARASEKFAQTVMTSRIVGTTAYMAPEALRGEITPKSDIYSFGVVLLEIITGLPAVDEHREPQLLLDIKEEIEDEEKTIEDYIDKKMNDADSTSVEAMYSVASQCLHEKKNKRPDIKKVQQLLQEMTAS

In general, IC50 refers to the midpoint of a concentration-inhibition curve. Read a high IC50 as a need for much substance. Regarding `COc1cc2nn(C3CCN(CCC(C)(C)O)CC3)cc2cc1NC(=O)c1cccc(C(F)(F)F)n1` [Example 52, N-{2-[1-(3-Hydroxy-3-methylbutyl)piperidin-4-yl]-6-methoxy-2H-indazol-5-yl}-6-(trifluoromethyl)pyridine-2-carboxamide], on human IRAK4, the IC50 was 1 nM. For the same compound, in the test with human PBMCs, the “activity (secreted TNF-α, LPS-induced cytokine production in human PBMCs)” value is at most 1 µM.
